Test [1] concerns ApoE-knockout mice AS model. In words: Plasma lipid indexes in ApoE-knockout AS mice. It counts as in vivo. Particulars: versus non-administration Control group. On the procedure: The mice were randomly divided into 6 groups, with 5 mice in each group. The groups were intraperitoneally injected respectively with a blank solvent, a blank solvent, 12 mg/kg compound I-1, and 40 mg/kg compound I-1 once every day for 8 weeks. After the experiment was completed, the animals were sacrificed and main arteries were collected.

The next test concerns the target T1, ASM (Homo sapiens, UniProt P17405).
T1 construct: A protein in cultivated cells was extracted, a buffer and a fluorescently-labeled reaction substrate were added; endogenous in cells
T1 sequence (P17405 47-631): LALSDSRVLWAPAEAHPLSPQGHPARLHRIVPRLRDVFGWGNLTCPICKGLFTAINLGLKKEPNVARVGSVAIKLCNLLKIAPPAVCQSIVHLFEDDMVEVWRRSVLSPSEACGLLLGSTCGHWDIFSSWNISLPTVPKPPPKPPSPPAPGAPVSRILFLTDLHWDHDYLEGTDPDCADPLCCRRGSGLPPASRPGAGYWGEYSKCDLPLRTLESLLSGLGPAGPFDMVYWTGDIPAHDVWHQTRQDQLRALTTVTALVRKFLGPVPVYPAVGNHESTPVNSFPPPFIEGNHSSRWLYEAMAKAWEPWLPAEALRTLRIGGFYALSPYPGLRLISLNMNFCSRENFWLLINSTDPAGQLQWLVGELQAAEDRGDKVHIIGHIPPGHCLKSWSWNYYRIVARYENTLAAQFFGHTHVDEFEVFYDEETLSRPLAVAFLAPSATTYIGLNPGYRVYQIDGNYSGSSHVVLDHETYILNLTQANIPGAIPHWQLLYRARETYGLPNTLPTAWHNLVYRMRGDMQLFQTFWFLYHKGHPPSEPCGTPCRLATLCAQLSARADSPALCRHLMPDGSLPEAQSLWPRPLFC
Kind of test: Inhibition of compounds on ASM activity (cell protein extract, fluorescently-labeled substrate). As to conditions: for pIC50: protein extracted from cultivated cells, fluorescently-labeled substrate. It counts as biochemical. On the procedure: ASM can hydrolyze sphingomyelin to produce ceramides in cells. For a specified amount of a fluorescently-labeled reaction substrate (Avanti Corporation, USA), different ASM activities catalyze the generation of a product at different amounts. Thus, an ASM activity level can be investigated by detecting a product content. The experiment design of the present disclosure is carried out according to the above principle.
A blank control group was set. After the reaction was completed, fluorescence analysis was performed, and finally an IC50 value of the compound was calculated.
A blank control group was set. After the reaction was completed, fluorescence analysis was performed.

In test [2] the test system is ApoE-knockout mice AS model. Kind of test: Anti-AS effect: aortic plaque area in ApoE-knockout mice on high-fat diet. It counts as in vivo. The procedure: The mice were randomly divided into 6 groups, with 5 mice in each group. The groups were intraperitoneally injected respectively with a blank solvent, a blank solvent, 12 mg/kg compound I-1, and 40 mg/kg compound I-1 once every day for 8 weeks. After the experiment was completed, the animals were sacrificed and main arteries were collected. The main arterial vessels were directly observed and photographed under a microscope. […] The collected arterial vessels were subjected to lipid staining with ORO and then photographed under a microscope, and image analysis was performed.

Test [3] deals with chronic depression rat model established by reserpine. Kind of test: Open field test (OFT) in reserpine chronic depression rat model. It counts as in vivo. As to conditions: rats. On the procedure: (§1) In the present disclosure, a chronic depression rat model was established by reserpine (reference: NeurotoxRes, 2014, doi: 10.1007/s12640-013-9454-8). Specific experimental steps were as follows: In a normal group, 8 rats were randomly selected and raised normally. Rats in the remaining groups each were injected intraperitoneally with reserpine at 0.2 mg/kg once every day for three days. Rats in the remaining groups each were intraperitoneally injected with the compound I-1 at different doses (3 mg/kg, 6 mg/kg, and 12 mg/kg), a positive drug amitriptyline (6 mg/kg), or no drug. Two weeks after the administration, the OFT was performed (reference: China Pharmacy, 2016, 27 (19): 2697-2699), and after the OFT was completed, the SPT was performed.

For test [4] the test system is unchanged. Kind of test: Sucrose preference test (SPT) in reserpine chronic depression rat model. It counts as in vivo. Particulars: rats. On the procedure: as §1, with “performed. After the OFT was completed, all rats were first trained to drink 10 g/L sucrose-containing water. That is, tap water was replaced with 10 g/L sucrose-containing water within the first 48 h, then the water and food were deprived for 20 h, and then 10 g/L sucrose-containing water was provided for drinking and the drinking amount within 24 h was calculated.” for “performed.”

Setting [5] is: i.p. 3, 6, 12 mg/kg, two weeks after administration.

Each structure is given as a SMILES string. pIC50: −log10 of the molar value.

As a reminder, the pIC50 is the negative decadic logarithm of the IC50, by convention in mol/L. Higher therefore signals a small IC50. `O=C(NO)c1ccc2ncn(-c3ccc(OCc4ccc(Cl)cc4)cc3)c2c1` [Compound I-1, 1-(4-((4-chlorobenzyl)oxy)phenyl)-N-hydroxy-1H-benzo[d]imidazole-6-carboxamide]: in test [1], the HDL in plasma entry is recorded as “no impact”, the “LDL level in plasma” value is listed as “significantly increased”, the “Total TG in plasma” value is listed as “no impact” and the “Total cholesterol in plasma” value is on record as “no impact”. Besides, the pIC50 at ASM is 6.33. In addition, the “Plaque area of AS (ORO lipid staining)” value in test [2] (12 mg/kg i.p. once daily for 8 weeks) was “significantly reduce”. For the same molecule, the “Plaque area of AS (ORO lipid staining)” value in test [2] (40 mg/kg i.p. once daily for 8 weeks) was “significantly reduce”. In addition, the “Aortic arch plaque area (direct microscopy)” value in test [2] (i.p. once daily for 8 weeks, different doses (12 and 40 mg/kg)) is reported as “significantly reduced”. In addition, the “OFT behavioral indexes versus amitriptyline (6 mg/kg)” value in test [3] (high-dose 12 mg/kg i.p.) was “comparable to that of rats in the amitriptyline control group”. For the same molecule, in test [3] (setting [5]), the “OFT frequency of grooming” value was “significantly improved”, the “OFT frequency of upright” value is reported as “significantly improved”, the “OFT times passing the grid” value is recorded as “significantly improved” and the “OFT total time in center” value is recorded as “significantly improved”. Moreover, in test [4] (high-dose 12 mg/kg i.p.), the “SPT effect versus positive control amitriptyline (6 mg/kg)” value is recorded as “slightly lower than that of the positive control drug amitriptyline”. Further, in test [4] (high-dose 12 mg/kg i.p., p < 0.01), the “SPT effect versus model group” value is reported as “significantly different from that of the model group”. Besides, the “SPT uptake capacity for sucrose-containing water” value in test [4] (i.p., 10 g/L sucrose water, drinking amount within 24 h) was “significantly restored”.

As for `O=C(NO)c1ccc2ncn(-c3ccc(OCc4ccc(C(F)(F)F)cc4)cc3)c2c1` [Compound I-3], the pIC50 against ASM was 5.43.

In the case of `O=C(NO)c1ccc2ncn(CCCOCc3ccc(C(F)(F)F)cc3)c2c1` [Compound I-5], at ASM, the negative logarithm of the IC50 (pIC50) is 5.56.

The molecule `O=C(NO)c1ccc2ncn(-c3ccc(OCc4cccc(C(F)(F)F)c4)cc3)c2c1` [Compound I-6] gave a pIC50 at ASM of 5.91.

On to `O=C(NO)c1ccc2ncn(-c3ccc(OCc4ccc(Cl)c(C(F)(F)F)c4)cc3)c2c1` [Compound I-7], for which, on ASM, the pIC50 was 6.41.

Regarding `O=C(NO)c1ccc2ncn(-c3ccc(OCc4ccc(C(F)(F)F)cc4C(F)(F)F)cc3)c2c1` [Compound I-8], the pIC50 against ASM was 5.94.

The inhibition is how much of the control response was suppressed. Low readings indicate little suppression, high ones strong suppression. On ASM, `O=C(NO)c1ccc2ncn(-c3ccc(OCc4cc(C(F)(F)F)cc(C(F)(F)F)c4)cc3)c2c1` [Compound I-9] displayed an inhibition at 1 µM of 80% and an inhibition at 10 µM of 93%.

For `O=C(NO)c1ccc2ncn(-c3ccc(OCc4ccc(F)cc4)cc3)c2c1` [Compound I-10], at ASM, testing at 1 µM gave an inhibition of 20% and the inhibition at 10 µM was determined as 50%.

At ASM, `N#Cc1ccc(COc2ccc(-n3cnc4ccc(C(=O)NO)cc43)cc2)cc1` [Compound I-11] gave an inhibition at 1 µM of 8% and an inhibition at 10 µM of 83%.

As to `COc1ccc(COc2ccc(-n3cnc4ccc(C(=O)NO)cc43)cc2)cc1` [Compound I-12], on ASM, the inhibition at 1 µM worked out at 70% and the inhibition at 10 µM worked out at 82%.

`O=C(NO)c1ccc2ncn(-c3ccc(OCc4ccccn4)cc3)c2c1` [Compound I-13]: at ASM, testing at 1 µM gave an inhibition of 14% and the inhibition at 10 µM was determined as 22%.

`O=C(NO)c1ccc2ncn(-c3ccc(OCc4ccc(C(F)(F)F)cn4)cc3)c2c1` [Compound I-14]: on ASM, the inhibition at 1 µM is 24% and at 10 µM the inhibition was 76%.

As to `O=C(NO)c1ccc2ccn(-c3ccc(OCc4ccc(C(F)(F)F)cc4)cc3)c2c1` [II-1, 1-(4-((4-trifluoromethylbenzyl)oxy)phenyl)-N-hydroxy-1H-indole-6-carboxamide], at ASM, testing at 1 µM gave an inhibition of 74% and the inhibition at 10 µM worked out at 91%.

On to `COc1ccc(COc2ccc(-n3ccc4ccc(C(=O)NO)cc43)cc2)cc1` [II-2, 1-(4-((4-methoxybenzyl)oxy)phenyl)-N-hydroxy-1H-indole-6-carboxamide], for which, at ASM, the inhibition at 1 µM was 69% and the inhibition at 10 µM stood at 88%.

The values above are taken from patent US20230257355A1, “HYDROXAMIC ACID-CONTAINING COMPOUND, AND PREPARATION METHOD AND USE THEREOF” (CHINA PHARMACEUTICAL UNIVERSITY, priority 2020, published 2023).
